# Values joined by “and” are separate entries in the source; they are usually repeats but may differ in a detail not shown here. Equal entries are not always repeated.
# Legend:
# [1] = biological target: Carboxylic ester hydrolase (Equus caballus, UniProt Q9N1N9); test: Cholinesterase Inhibition Assay
# Acetylcholinesterase = Acetylcholinesterase (Electrophorus electricus, UniProt O42275); test: Cholinesterase Inhibition Assay
# Sequence of Acetylcholinesterase (O42275 whole entry): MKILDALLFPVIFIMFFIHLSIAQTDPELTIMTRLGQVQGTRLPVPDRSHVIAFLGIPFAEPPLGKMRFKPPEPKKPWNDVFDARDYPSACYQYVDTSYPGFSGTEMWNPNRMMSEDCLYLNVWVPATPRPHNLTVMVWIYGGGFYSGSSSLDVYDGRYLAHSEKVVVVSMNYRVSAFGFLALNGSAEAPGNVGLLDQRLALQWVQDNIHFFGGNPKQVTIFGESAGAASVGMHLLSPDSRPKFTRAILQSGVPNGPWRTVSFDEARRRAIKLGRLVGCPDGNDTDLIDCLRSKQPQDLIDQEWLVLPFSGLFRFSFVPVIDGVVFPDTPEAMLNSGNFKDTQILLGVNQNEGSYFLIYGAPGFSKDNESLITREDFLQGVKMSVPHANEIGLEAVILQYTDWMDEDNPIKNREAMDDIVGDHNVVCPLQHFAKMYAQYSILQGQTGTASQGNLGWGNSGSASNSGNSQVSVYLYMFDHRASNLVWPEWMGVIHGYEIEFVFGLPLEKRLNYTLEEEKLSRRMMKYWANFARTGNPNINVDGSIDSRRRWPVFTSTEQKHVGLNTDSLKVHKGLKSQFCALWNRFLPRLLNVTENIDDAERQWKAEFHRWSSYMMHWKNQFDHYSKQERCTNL
# Sequence of Carboxylic ester hydrolase (Q9N1N9 whole entry): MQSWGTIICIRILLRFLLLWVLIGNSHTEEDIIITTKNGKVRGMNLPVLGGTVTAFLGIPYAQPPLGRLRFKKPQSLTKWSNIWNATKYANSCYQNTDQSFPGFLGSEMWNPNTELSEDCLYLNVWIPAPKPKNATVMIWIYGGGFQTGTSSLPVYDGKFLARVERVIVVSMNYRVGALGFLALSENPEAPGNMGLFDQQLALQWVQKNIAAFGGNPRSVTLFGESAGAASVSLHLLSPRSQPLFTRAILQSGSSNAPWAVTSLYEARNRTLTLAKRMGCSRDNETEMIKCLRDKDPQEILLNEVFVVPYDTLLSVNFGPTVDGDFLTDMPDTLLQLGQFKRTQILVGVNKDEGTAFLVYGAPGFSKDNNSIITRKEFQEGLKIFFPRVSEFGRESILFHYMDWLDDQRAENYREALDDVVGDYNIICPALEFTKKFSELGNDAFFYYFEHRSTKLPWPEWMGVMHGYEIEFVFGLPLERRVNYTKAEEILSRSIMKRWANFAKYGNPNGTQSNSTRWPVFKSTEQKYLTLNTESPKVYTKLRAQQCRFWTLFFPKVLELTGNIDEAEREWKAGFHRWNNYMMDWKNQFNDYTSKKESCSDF
SMILES,IC50 [1],IC50 (Acetylcholinesterase)
CC(=O)NC(Cc1ccccc1F)C(=O)Nc1ccc(C)cc1 (centres undefined) [2-Acetamido-3-(2-fluorophenyl)-N-(4-methylphenyl)propanamide (1b)],113 µM,69 µM
CC(=O)NC(Cc1ccccc1F)C(=O)Nc1ccc([N+](=O)[O-])cc1 (centres undefined) [2-Acetamido-3-(2-fluorophenyl)-N-(4-nitrophenyl)propanamide (1c)],154 µM,64.4 µM
CC(=O)NC(Cc1ccccc1F)C(=O)Nc1ccc(C(F)(F)F)cc1 (centres undefined) [2-Acetamido-3-(2-fluorophenyl)-N-[4-(trifluoromethyl)phenyl]propanamide (1d)],218 µM,73.4 µM
CC(=O)NC(Cc1ccccc1F)C(=O)Nc1ccccc1 (centres undefined) [2-Acetamido-3-(2-fluorophenyl)-N-phenylpropanamide (1e)],121 µM,86.3 µM
CC(=O)NC(Cc1cccc(F)c1)C(=O)Nc1ccc(C)cc1 (centres undefined) [2-Acetamido-3-(3-fluorophenyl)-N-(4-methylphenyl)propanamide (2b)],143 µM,68.7 µM
CC(=O)NC(Cc1cccc(F)c1)C(=O)Nc1ccc([N+](=O)[O-])cc1 (centres undefined) [2-Acetamido-3-(3-fluorophenyl)-N-(4-nitrophenyl)propanamide (2c)],120 µM,70.6 µM
CC(=O)NC(Cc1cccc(F)c1)C(=O)Nc1ccc(C(F)(F)F)cc1 (centres undefined) [2-Acetamido-3-(3-fluorophenyl)-N-[4-(trifluoromethyl)phenyl]propanamide (2d)],164 µM,79.4 µM
CC(=O)NC(Cc1cccc(F)c1)C(=O)Nc1ccccc1 (centres undefined) [2-Acetamido-3-(3-fluorophenyl)-N-phenylpropanamide (2e)],157 µM,86.5 µM
CC(=O)NC(Cc1ccc(F)cc1)C(=O)Nc1ccc(C)cc1 (centres undefined) [2-Acetamido-3-(4-fluorophenyl)-N-(4-methylphenyl)propanamide (3b)],154 µM,69 µM
CC(=O)NC(Cc1ccc(F)cc1)C(=O)Nc1ccc([N+](=O)[O-])cc1 (centres undefined) [2-Acetamido-3-(4-fluorophenyl)-N-(4-nitrophenyl)propanamide (3c)],162 µM,66 µM
CC(=O)NC(Cc1ccc(F)cc1)C(=O)Nc1ccc(C(F)(F)F)cc1 (centres undefined) [2-Acetamido-3-(4-fluorophenyl)-N-[4-(trifluoromethyl)phenyl]propanamide (3d)],289 µM,84.1 µM
CC(=O)NC(Cc1ccc(F)cc1)C(=O)Nc1ccccc1 (centres undefined) [2-Acetamido-3-(4-fluorophenyl)-N-phenylpropanamide (3e)],89.8 µM,99.8 µM
CC(=O)NC(Cc1ccccc1F)C(=O)Nc1ccc(Cl)cc1 (centres undefined) [2-Acetamido-N-(4-chlorophenyl)-3-(2-fluorophenyl)propanamide (1a)],227 µM,76.5 µM
CC(=O)NC(Cc1cccc(F)c1)C(=O)Nc1ccc(Cl)cc1 (centres undefined) [2-Acetamido-N-(4-chlorophenyl)-3-(3-fluorophenyl)propanamide (2a)],170 µM,70.7 µM
CC(=O)NC(Cc1ccc(F)cc1)C(=O)Nc1ccc(Cl)cc1 (centres undefined) [2-Acetamido-N-(4-chlorophenyl)-3-(4-fluorophenyl)propanamide (3a)],235 µM,97 µM
CC(=O)NC(Cc1ccccc1F)C(=O)O (centres undefined) [2-acetamido-3-(2-fluorophenyl)propanoic acid (1)],217 µM,64.2 µM

SMILES,IC50 [1],IC50 (Acetylcholinesterase)
CC(=O)NC(Cc1cccc(F)c1)C(=O)O (centres undefined) [2-acetamido-3-(3-fluorophenyl)propanoic acid (2)],210 µM,63.6 µM
CC(=O)NC(Cc1ccc(F)cc1)C(=O)O (centres undefined) [2-acetamido-3-(4-fluorophenyl)propanoic acid (3)],227 µM,63.7 µM
CC(=O)NC(Cc1ccccc1F)C(=O)Oc1ccc(C(F)(F)F)cc1 (centres undefined) [4-(Trifluoromethyl)phenyl 2-acetamido-3-(2-fluorophenyl)propanoate (1i)],37.4 µM and 59.8 µM,68 µM and 62.9 µM
CC(=O)NC(Cc1cccc(F)c1)C(=O)Oc1ccc(C(F)(F)F)cc1 (centres undefined) [4-(Trifluoromethyl)phenyl 2-acetamido-3-(3-fluorophenyl)propanoate (2i)],34 µM,62.2 µM
CC(=O)NC(Cc1ccccc1F)C(=O)Oc1ccc(Cl)cc1 (centres undefined) [4-Chlorophenyl 2-acetamido-3-(2-fluorophenyl)propanoate (1f)],82.2 µM,104 µM
CC(=O)NC(Cc1cccc(F)c1)C(=O)Oc1ccc(Cl)cc1 (centres undefined) [4-Chlorophenyl 2-acetamido-3-(3-fluorophenyl)propanoate (2f)],52.7 µM,115 µM
CC(=O)NC(Cc1ccc(F)cc1)C(=O)Oc1ccc(Cl)cc1 (centres undefined) [4-Chlorophenyl 2-acetamido-3-(4-fluorophenyl)propanoate (3f)],59.1 µM,131 µM
CC(=O)NC(Cc1ccccc1F)C(=O)Oc1ccc(C)cc1 (centres undefined) [4-Methylphenyl 2-acetamido-3-(2-fluorophenyl)propanoate (1g)],85.4 µM,57.9 µM
CC(=O)NC(Cc1cccc(F)c1)C(=O)Oc1ccc(C)cc1 (centres undefined) [4-Methylphenyl 2-acetamido-3-(3-fluorophenyl)propanoate (2g)],90.9 µM,68.5 µM
CC(=O)NC(Cc1ccc(F)cc1)C(=O)Oc1ccc(C)cc1 (centres undefined) [4-Methylphenyl 2-acetamido-3-(4-fluorophenyl)propanoate (3g)],83.3 µM,73.3 µM
CC(=O)NC(Cc1ccccc1F)C(=O)Oc1ccc([N+](=O)[O-])cc1 (centres undefined) [4-Nitrophenyl 2-acetamido-3-(2-fluorophenyl)propanoate (1h)],77.5 µM,76.7 µM
CC(=O)NC(Cc1cccc(F)c1)C(=O)Oc1ccc([N+](=O)[O-])cc1 (centres undefined) [4-Nitrophenyl 2-acetamido-3-(3-fluorophenyl)propanoate (2h)],142 µM,74.3 µM
CC(=O)NC(Cc1ccc(F)cc1)C(=O)Oc1ccc([N+](=O)[O-])cc1 (centres undefined) [4-Nitrophenyl 2-acetamido-3-(4-fluorophenyl)propanoate (3h)],126 µM,60 µM
CC(=O)NC(Cc1ccccc1F)C(=O)Oc1ccccc1 (centres undefined) [Phenyl 2-acetamido-3-(2-fluorophenyl)propanoate (1j)],30 µM,79.2 µM
CC(=O)NC(Cc1cccc(F)c1)C(=O)Oc1ccccc1 (centres undefined) [Phenyl 2-acetamido-3-(3-fluorophenyl)propanoate (2j)],53.7 µM,87.8 µM
CC(=O)NC(Cc1ccc(F)cc1)C(=O)Oc1ccccc1 (centres undefined) [Phenyl 2-acetamido-3-(4-fluorophenyl)propanoate (3j)],8.25 µM,98.3 µM

# Source: BindingDB's records for doi:10.1016/j.bioorg.2017.02.010 (Charles University, 2017)
